What was measured:
[1] = tested on: S. enterica ser. Typhimurium DT 109; test: Spot-on-lawn antimicrobial activity; type: cell-based, Salmonella enterica; details: TSBYE
Procedure: (§1) Spot-on-lawn method [He, Z., et al., Appl. Environ. Microbiol., (2007) 73:168-178] was used for the bioassay of antimicrobial activity. Bacterial indicators were incubated at 37° C. for 24 h, except Pseudomonas putida, Clostridium difficile and methycillin resistant Staphylococcus aureus which were incubated for 48 h (Table 1). The indicator overlay was prepared by pouring 10 ml soft agar (seeded with 10 μL indicator culture) onto tryptose agar as basal medium in a petri dish. Purified antimicrobials were two-fold serially diluted and aliquots (10 μL each) were spotted onto the soft agar. The plates were incubated overnight and inspected for the presence of growth inhibition zones. Antimicrobial activity was expressed in arbitrary units (AU)/mL; this value is the reciprocal of the highest dilution displaying a zone of inhibition corresponding to 1 mL of the non-diluted antimicrobial preparation.
(§2) Purified paenibacterin was used for the antimicrobial spectrum test. Microorganisms tested for sensitivity to this compound included pathogenic (e.g., Salmonella Typhimurium, Escherichia coli O157:H7, Listeria monocytogenes, and Staphylococcus aureus) and non-pathogenic (e.g., Escherichia coli K-12, Pseudomonas putida, and Enterococcus faecalis) bacteria (Table 1).

[2] = tested on: S. enterica ser. Enteritidis; test: Spot-on-lawn antimicrobial activity; type: cell-based, Salmonella enterica; details: TSBYE
Procedure: as §1, §2

B. cereus ATCC 11178 = test: Spot-on-lawn antimicrobial activity; type: cell-based, Bacillus cereus; details: TSBYE
Procedure: as §1, §2

[3] = tested on: polymixin B-sensitive strains of Klebsiella pneumoniae; test: MIC, Table 11; type: cell-based; details: NBS plates
Procedure: (§3) Plates were incubated at 35° C. for 24 h.
(§4) The activity of paenibacterin was also tested against clinical isolates of the following Gram-negative bacterial strains: four strains of the species Pseudomonas aeruginosa (PAE), three strains of the species Acinetobacter baumannii (ABA), two strains of the species Escherichia coli (ECO), and four strains of the species Klebsiella pneumoniae (KPN). Particularly, the strains of Gram-negative bacteria included polymyxin B-resistant (PMB-R) and polymyxin B-sensitive (PMB-S) strains of each above listed species. The MICs were determined using the above described CLSI broth microdilution method, in which the method was performed with both non-binding surface coated (NBS) and polystyrene (PS) 96-well plates (Tables 11 and 12, respectively). The MICs were generally lower in the NBS 96-well plates as compared to the PS 96-well plates.

[4] = tested on: polymixin B-sensitive strains of Escherichia coli; test: MIC, Table 11; type: cell-based; details: NBS plates
Procedure: as §3, §4

[5] = tested on: polymixin B-sensitive strains of Pseudomonas aeruginosa; test: MIC, Table 11; type: cell-based; details: NBS plates
Procedure: as §3, §4

[6] = tested on: polymyxin B-resistant and polymyxin B-sensitive strains of Acinetobacter baumannii; test: MIC, Table 11; type: cell-based; details: Table 11 (NBS plates)
Procedure: as §3, §4

Yersinia enterocolitica = test: Spot-on-lawn antimicrobial activity; type: cell-based; details: TSBYE
Procedure: as §1, §2

[7] = tested on: Salmonella enterica ser. Typhimurium; test: Spot-on-lawn antimicrobial activity; type: cell-based; details: TSBYE
Procedure: as §1, §2

[8] = tested on: Lactobacillus plantarum ATCC 8014; test: Spot-on-lawn antimicrobial activity; type: cell-based; details: MRS
Procedure: as §1, §2

[9] = tested on: Listeria monocytogenes Scott A; test: Spot-on-lawn antimicrobial activity; type: cell-based; details: TSBYE
Procedure: as §1, §2

[10] = tested on: S. aureus (methycillin-resistant); test: Spot-on-lawn antimicrobial activity; type: cell-based, Staphylococcus aureus; details: TSBYE
Procedure: as §1, §2

C. difficile CL148 = test: Spot-on-lawn antimicrobial activity; type: cell-based, Clostridium difficile; details: BHIYE
Procedure: as §1, §2

MSSA ATCC 29213 SAU.42 = test: microbe, parasite or virus in culture; details: SAU.42, MSSA ATCC 29213; NBS 96-well plates
Procedure: (§5) The activity of paenibacterin against several strains of Gram-positive and Gram-negative foodborne pathogens is summarized in Table 10. The data is reported as minimum inhibitory concentrations (MIC) as an average of three replicates for paenibacterin against the various listed bacterial strains. […] MICs were determined according to the CLSI broth microdilution method (see, Clinical and Laboratory Standards Institute (CLSI). 2009. Methods for dilution antimicrobial susceptibility tests for bacteria that grow aerobically; approved standard. […]. CLSI, Wayne, Pa.). Briefly, HPLC-purified paenibacterin was dissolved in methanol and diluted to appropriate concentration with cation-adjusted Mueller-Hinton II broth (Difco). Aliquots (25 μl) of serially-diluted paenibacterin was dispensed into wells of a 96-well plate; an equal amount of 1/10 diluted overnight bacterial culture was added to wells. Plates were incubated at 35° C. for 24 h. Cell growth after incubation was examined and determined using a microtiter plate reader at 600 nm. Concentration of paenibacterin is determined based on a molecular weight of 1604 Da.
(§6) The activity of paenibacterin was further tested against clinical isolates of the following Gram-positive bacteria: methicillin-sensitive Staphylococcus aureus (MSSA), methicillin-resistant S. aureus (MRSA), vancomycin-sensitive Enterococcus faecalis, vancomycin-resistant E. faecalis (VRE), Streptococcus pneumoniae, and laboratory derived daptomycin-resistant (DR) MSSA, MRSA, and VRE strains. The MICs were determined using the above described CLSI broth microdilution method, in which the method was performed with non-binding surface coated (NBS) 96-well plates.

WT ATCC 29212 EFS.43 = test: microbe, parasite or virus in culture; details: EFS.43, WT ATCC 29212; NBS 96-well plates
Procedure: as §5, §6

[11] = tested on: DR-MSSA from SAU.42 SAU.278; test: microbe, parasite or virus in culture; details: SAU.278, DR-MSSA from SAU.42; NBS 96-well plates
Procedure: as §5, §6

WT ATCC 49619 SPN.31 = test: microbe, parasite or virus in culture; details: SPN.31, WT ATCC 49619; NBS 96-well plates
Procedure: as §5, §6

[12] = tested on: DR-MRSA from MW2 SP SAU.1616; test: microbe, parasite or virus in culture; details: SAU.1616, DR-MRSA from MW2 SP; NBS 96-well plates
Procedure: as §5, §6

[13] = tested on: DR-VRE from EFS.807 EFS.2731; test: microbe, parasite or virus in culture; details: EFS.2731, DR-VRE from EFS.807; NBS 96-well plates
Procedure: as §5, §6

MRSA ATCC 43300 SAU.399 = test: microbe, parasite or virus in culture; details: SAU.399, MRSA ATCC 43300; NBS 96-well plates
Procedure: as §5, §6

[14] = tested on: DS-VRE ATCC 700802 EFS.807; test: microbe, parasite or virus in culture; details: EFS.807, DS-VRE ATCC 700802; NBS 96-well plates
Procedure: as §5, §6

Substance: paenibacterin
- Antimicrobial activity (AU/ml) [1]: 400 AU/ml
- Antimicrobial activity (AU/ml) [2]: 800 AU/ml
- Antimicrobial activity (AU/ml) (B. cereus ATCC 11178): 200 AU/ml
- MIC [3]: 8 µg/mL
- MIC [4]: 8 µg/mL
- MIC [5]: 8 µg/mL
- MIC [6]: 2 µg/mL
- Antimicrobial activity (AU/ml) (Yersinia enterocolitica): 1600 AU/ml
- Antimicrobial activity (AU/ml) [7]: 400 AU/ml
- Antimicrobial activity (AU/ml) [8]: 400 AU/ml
- Antimicrobial activity (AU/ml) [9]: 800 AU/ml
- Antimicrobial activity (AU/ml) [10]: 100 AU/ml
- Antimicrobial activity (AU/ml) (C. difficile CL148): 0 AU/ml
- Antimicrobial activity (AU/ml) (C. difficile CL148; listed as Paenibacterin): no activity
- Minimum inhibitory concentration (MIC) (MSSA ATCC 29213 SAU.42): 32 µg/mL
- Minimum inhibitory concentration (MIC) (WT ATCC 29212 EFS.43): 32 to 64 µg/mL
- Minimum inhibitory concentration (MIC) [11]: 64 µg/mL
- Minimum inhibitory concentration (MIC) (WT ATCC 49619 SPN.31): 64 µg/mL
- Minimum inhibitory concentration (MIC) [12]: 32 µg/mL
- Minimum inhibitory concentration (MIC) [13]: 8 µg/mL
- Minimum inhibitory concentration (MIC) (MRSA ATCC 43300 SAU.399): 32 µg/mL
- Minimum inhibitory concentration (MIC) [14]: 64 µg/mL

Reference: patent US9017692B2, “Antimicrobial agent, bacterial strain, biosynthesis, and methods of use” (priority 2011, dated 2015)
